Test results taken from patent publication US20040029138A1, “Global electronic medicine response profile testing network” (priority 2003, published 2004).
Counter-ions that a name gives are not always drawn.

Columns and labels:
[1] = system: patients with Irritable Bowel Syndrome (IBS); conditions: double blind, placebo controlled studies; cited from earlier work
subjects with IBS = test: Double blind, placebo controlled clinical trials of alosetron for IBS, response stratified by 5HTT genotype; assay type: in vivo, human; conditions: for Relief of IBS symptoms (subjects achieving relief): 12 weeks treatment
Protocol: Genetic samples were obtained from 219 female human subjects enrolled in clinical trials of alosetron for the treatment of IBS. Using PCR technology as is known in the art, an insertion/deletion genetic marker was assayed in the 5-hydroxytryptamine-transporter gene (5HTT gene). The alleles were labeled as “del” (deletion) or “ins” (insertion) resulting in three possible genotypes (del/del; del/ins or ins/ins). The subjects' response to alosetron in the clinical trial setting was reviewed and correlated with genotype. In the double blind, placebo controlled clinical trials; subjects received 12 weeks of treatment with either alosetron or a placebo. A favorable response to alosetron was when a subject reported relief of IBS symptoms during six weeks of the twelve-week trial. The incidence of various other effects, including constipation, was also recorded. The response of subjects to treatment with alosetron in the clinical trial was stratified according to genotype.

In the case of Cc1[nH]cnc1CN1CCc2c(c3ccccc3n2C)C1=O [alosetron, Alosetron hydrochloride], the “Effect on pain and bowel function in IBS patients” value [1] is listed as “reduce pain and improve bowel function”, the “Relief of IBS symptoms (subjects achieving relief)” value (subjects with IBS; del/del 5HTT genotype subjects (21/31), relief during six weeks of the twelve-week trial) is listed as 68% and the “Constipation reported (incidence)” value (subjects with IBS; del/del subjects (n=31), 4 subjects) is listed as 13%. The “Relief of IBS symptoms (subjects achieving relief)” value (subjects with IBS; del/ins 5HTT genotype subjects (21/33)) was 64%, the “Constipation reported (incidence)” value (subjects with IBS; del/ins subjects (n=33), 10 subjects) was 30% and the “Effectiveness versus placebo in producing relief of IBS symptoms” value (subjects with IBS; in each of the three 5HTT genotypes) was “more effective than placebo”. For the same compound, the “Relief of IBS symptoms (subjects achieving relief)” value (subjects with IBS; ins/ins 5HTT genotype subjects (22/38)) was 58%, the “Constipation reported (incidence)” value (subjects with IBS; ins/ins subjects (n=38), 8 subjects) was 21% and the “Constipation reported (incidence)” value (subjects with IBS; total group of subjects receiving alosetron (n=102)) was 21%.
